From PubChem BioAssay AID194 (DTP/NCI, 2004)
“And” between values parts separate entries of the source, which are not always exact repeats. Identical values can stand only once. Inconclusive results are not listed.

Tested on: BDF1 mice, B16 melanoma s.c., survival/tumor T/C
Experiment: NCI In Vivo Anticancer Drug Screen. Data for tumor model B16 Melanoma (subcutaneous) in B6D2F1 (BDF1) mice
Method: The antitumor activity of compounds was measured in mice bearing transplantable tumors. Survival or tumor size were measured and the results are expressed as the measurement made in the treated group (T) divided by the measurement made in the vehicle treated control group (C). The tumor model used in this assay is B16 Melanoma (subcutaneous) in B6D2F1 (BDF1) mice

[1] = endpoint: median survival time, dose: 300.0 mg/kg/injection, schedule: Q04DX003 (ip), vehicle: Klucel (hydroxypropylcellulose) (HPC), higher = longer survival

CN(N=O)C(=O)N[C@@H](C=O)[C@@H](O)[C@H](O)[C@H](O)CO
T/C (endpoint: median survival time, dose: 20.0 mg/kg/injection, schedule: Q01DX009 (ip), vehicle: other, higher = longer survival): 113 % of control | T/C (endpoint: median survival time, dose: 40.0 mg/kg/injection, schedule: Q01DX009 (ip), vehicle: other, higher = longer survival): 123 % of control | T/C (endpoint: median survival time, dose: 80.0 mg/kg/injection, schedule: Q01DX009 (ip), vehicle: other, higher = longer survival): 106 % of control

COc1cccc2c1C(=O)c1c(O)c3c(c(O)c1C2=O)C[C@@](O)(C(=O)COC(=O)Cc1cccc2ccccc12)C[C@@H]3OC1CC(N)C(O)C(C)O1 (stereo not given in full)
T/C (endpoint: median survival time, dose: 1.0 mg/kg/injection, schedule: Q01DX009 (ip), vehicle: saline with Tween-80, higher = longer survival): 111 % of control | T/C (endpoint: median survival time, dose: 2.0 mg/kg/injection, schedule: Q01DX009 (ip), vehicle: saline with Tween-80, higher = longer survival): 114 % of control | T/C (endpoint: median survival time, dose: 4.0 mg/kg/injection, schedule: Q01DX009 (ip), vehicle: saline with Tween-80, higher = longer survival): 94 % of control

O=P(O)(NCCCl)NCCCl
T/C (endpoint: median survival time, dose: 50.0 mg/kg/injection, schedule: Q01DX001 (ip), vehicle: saline, higher = longer survival): 98 % of control | T/C (endpoint: median survival time, dose: 150.0 mg/kg/injection, schedule: Q01DX001 (ip), vehicle: saline, higher = longer survival): 162 % of control

Cc1c(N)nc(C(CC(N)=O)NCC(N)C(N)=O)nc1C(=O)NC(C(=O)NC(C)C(O)CC(=O)NC(C(=O)NC(OC1OC(C)C(N)C(O)C1O)C(O)c1nc(-c2nc(C(=O)NCCCC(N)CC(=O)NCCCNCCCCN)cs2)cs1)C(C)O)C(OC1OC(CO)C(O)C(O)C1OC1OC(CO)C(O)C(OC(N)=O)C1O)c1cnc[nH]1 (stereo not given)
T/C (endpoint: median survival time, dose: 1.0 mg/kg/injection, schedule: Q01DX009 (ip), vehicle: saline, higher = longer survival): 173 % of control | T/C (endpoint: median survival time, dose: 2.0 mg/kg/injection, schedule: Q01DX009 (ip), vehicle: saline, higher = longer survival): 174 % of control | T/C (endpoint: median survival time, dose: 4.0 mg/kg/injection, schedule: Q01DX009 (ip), vehicle: saline, higher = longer survival): 160 % of control

CC(=O)NNC(=O)c1ccccn1
T/C (endpoint: median survival time, dose: 6.25 mg/kg/injection, schedule: Q01DX009 (ip), vehicle: Klucel (hydroxypropylcellulose) (HPC), higher = longer survival): 102 % of control | T/C (endpoint: median survival time, dose: 12.5 mg/kg/injection, schedule: Q01DX009 (ip), vehicle: Klucel (hydroxypropylcellulose) (HPC), higher = longer survival): 92 % of control | T/C (endpoint: median survival time, dose: 25.0 mg/kg/injection, schedule: Q01DX009 (ip), vehicle: Klucel (hydroxypropylcellulose) (HPC), higher = longer survival): 86 % of control | T/C (endpoint: median survival time, dose: 50.0 mg/kg/injection, schedule: Q01DX009 (ip), vehicle: Klucel (hydroxypropylcellulose) (HPC), higher = longer survival): 88 % of control and 98 % of control | T/C (endpoint: median survival time, dose: 100.0 mg/kg/injection, schedule: Q01DX009 (ip), vehicle: Klucel (hydroxypropylcellulose) (HPC), higher = longer survival): 88 % of control

O=C1OC(C(O)CO)C(O)=C1O (stereo not given)
T/C (endpoint: median survival time, dose: 50.0 mg/kg/injection, schedule: Q01DX009 (ip), vehicle: saline, higher = longer survival): 106 % of control | T/C (endpoint: median survival time, dose: 100.0 mg/kg/injection, schedule: Q01DX009 (ip), vehicle: saline, higher = longer survival): 103 % of control | T/C (endpoint: median survival time, dose: 200.0 mg/kg/injection, schedule: Q01DX009 (ip), vehicle: saline, higher = longer survival): 103 % of control | T/C (endpoint: median survival time, dose: 400.0 mg/kg/injection, schedule: Q01DX009 (ip), vehicle: saline, higher = longer survival): 109 % of control | T/C (endpoint: median survival time, dose: 800.0 mg/kg/injection, schedule: Q01DX009 (ip), vehicle: saline, higher = longer survival): 109 % of control

Cc1ncc([N+](=O)[O-])n1CCO
T/C (endpoint: median survival time, dose: 37.5 mg/kg/injection, schedule: Q01DX009 (ip), vehicle: Klucel (hydroxypropylcellulose) (HPC), higher = longer survival): 100 % of control | T/C (endpoint: median survival time, dose: 37.5 mg/kg/injection, schedule: Q04DX003 (ip), vehicle: Klucel (hydroxypropylcellulose) (HPC), higher = longer survival): 100 % of control | T/C (endpoint: median survival time, dose: 75.0 mg/kg/injection, schedule: Q01DX009 (ip), vehicle: Klucel (hydroxypropylcellulose) (HPC), higher = longer survival): 100 % of control | T/C (endpoint: median survival time, dose: 75.0 mg/kg/injection, schedule: Q04DX003 (ip), vehicle: Klucel (hydroxypropylcellulose) (HPC), higher = longer survival): 111 % of control | T/C (endpoint: median survival time, dose: 150.0 mg/kg/injection, schedule: Q01DX009 (ip), vehicle: Klucel (hydroxypropylcellulose) (HPC), higher = longer survival): 108 % of control | T/C (endpoint: median survival time, dose: 150.0 mg/kg/injection, schedule: Q04DX003 (ip), vehicle: Klucel (hydroxypropylcellulose) (HPC), higher = longer survival): 111 % of control | T/C (endpoint: median survival time, dose: 300.0 mg/kg/injection, schedule: Q01DX009 (ip), vehicle: Klucel (hydroxypropylcellulose) (HPC), higher = longer survival): 93 % of control | T/C [1]: 112 % of control | T/C (endpoint: median survival time, dose: 600.0 mg/kg/injection, schedule: Q04DX003 (ip), vehicle: Klucel (hydroxypropylcellulose) (HPC), higher = longer survival): 121 % of control

CC(c1ccccc1)N1C(=O)CSC1=S (stereo not given)
T/C (endpoint: median survival time, dose: 400.0 mg/kg/injection, schedule: Q01DX009 (ip), vehicle: Klucel (hydroxypropylcellulose) (HPC), higher = longer survival): 89 % of control

CCN(CC)CCNc1ccc(CO)c2sc3ccccc3c(=O)c12
T/C (endpoint: median survival time, dose: 34.0 mg/kg/injection, schedule: Q01DX005 (ip), vehicle: water, higher = longer survival): 105 % of control | T/C (endpoint: median tumor weight (est.), dose: 34.0 mg/kg/injection, schedule: Q01DX005 (ip), vehicle: water, higher = larger tumour): 55 % of control | T/C (endpoint: median tumor weight (est.), dose: 50.0 mg/kg/injection, schedule: Q01DX005 (ip), vehicle: water, higher = larger tumour): 72 % of control | T/C (endpoint: median tumor weight (est.), dose: 75.0 mg/kg/injection, schedule: Q01DX005 (ip), vehicle: water, higher = larger tumour): 28 % of control

NC(C/[N+]([O-])=N/O)C(=O)O (stereo not given)
T/C (endpoint: median survival time, dose: 8.75 mg/kg/injection, schedule: Q01DX010 (ip), vehicle: alkali diluted with saline, higher = longer survival): 96 % of control | T/C (endpoint: median survival time, dose: 8.78 mg/kg/injection, schedule: Q01DX010 (ip), vehicle: alkali diluted with saline, higher = longer survival): 100 % of control | T/C (endpoint: median survival time, dose: 13.2 mg/kg/injection, schedule: Q01DX010 (ip), vehicle: alkali diluted with saline, higher = longer survival): 152 % of control and 154 % of control | T/C (endpoint: median survival time, dose: 29.6 mg/kg/injection, schedule: Q01DX010 (ip), vehicle: alkali diluted with saline, higher = longer survival): 93 % of control and 96 % of control | T/C (endpoint: median survival time, dose: 40.0 mg/kg/injection, schedule: Q01DX009 (ip), vehicle: Klucel (hydroxypropylcellulose) (HPC), higher = longer survival): 103 % of control | T/C (endpoint: median survival time, dose: 44.4 mg/kg/injection, schedule: Q01DX010 (ip), vehicle: alkali diluted with saline, higher = longer survival): 104 % of control | T/C (endpoint: median survival time, dose: 66.7 mg/kg/injection, schedule: Q01DX010 (ip), vehicle: alkali diluted with saline, higher = longer survival): 122 % of control | T/C (endpoint: median survival time, dose: 300.0 mg/kg/injection, schedule: Q01DX001 (ip), vehicle: Klucel (hydroxypropylcellulose) (HPC), higher = longer survival): 87 % of control | T/C [1]: 93 % of control | T/C (endpoint: median survival time, dose: 500.0 mg/kg/injection, schedule: Q01DX001 (ip), vehicle: Klucel (hydroxypropylcellulose) (HPC), higher = longer survival): 97 % of control

O=C(O)CCNSc1ccccc1[N+](=O)[O-]
T/C (endpoint: median survival time, dose: 12.5 mg/kg/injection, schedule: Q01DX009 (ip), vehicle: saline with Tween-80, higher = longer survival): 105 % of control | T/C (endpoint: median survival time, dose: 25.0 mg/kg/injection, schedule: Q01DX009 (ip), vehicle: saline with Tween-80, higher = longer survival): 109 % of control | T/C (endpoint: median survival time, dose: 50.0 mg/kg/injection, schedule: Q01DX009 (ip), vehicle: saline with Tween-80, higher = longer survival): 114 % of control | T/C (endpoint: median survival time, dose: 100.0 mg/kg/injection, schedule: Q01DX009 (ip), vehicle: saline with Tween-80, higher = longer survival): 100 % of control

C[C@@H](CN1CC(=O)NC(=O)C1)N1CC(=O)NC(=O)C1
T/C (endpoint: median survival time, dose: 6.25 mg/kg/injection, schedule: Q04DX003 (ip), vehicle: saline, higher = longer survival): 91 % of control | T/C (endpoint: median survival time, dose: 12.5 mg/kg/injection, schedule: Q04DX003 (ip), vehicle: saline, higher = longer survival): 97 % of control | T/C (endpoint: median survival time, dose: 16.0 mg/kg/injection, schedule: Q01DX009 (ip), vehicle: Klucel (hydroxypropylcellulose) (HPC), higher = longer survival): 100 % of control | T/C (endpoint: median survival time, dose: 16.0 mg/kg/injection, schedule: Q01DX009 (ip), vehicle: water, higher = longer survival): 117 % of control | T/C (endpoint: median survival time, dose: 25.0 mg/kg/injection, schedule: Q04DX003 (ip), vehicle: saline, higher = longer survival): 107 % of control | T/C (endpoint: median survival time, dose: 32.0 mg/kg/injection, schedule: Q01DX009 (ip), vehicle: Klucel (hydroxypropylcellulose) (HPC), higher = longer survival): 110 % of control | T/C (endpoint: median survival time, dose: 64.0 mg/kg/injection, schedule: Q01DX009 (ip), vehicle: Klucel (hydroxypropylcellulose) (HPC), higher = longer survival): 168 % of control | T/C (endpoint: median survival time, dose: 100.0 mg/kg/injection, schedule: Q04DX003 (ip), vehicle: saline, higher = longer survival): 119 % of control | T/C (endpoint: median survival time, dose: 200.0 mg/kg/injection, schedule: Q04DX003 (ip), vehicle: saline, higher = longer survival): 115 % of control | T/C (endpoint: median survival time, dose: 400.0 mg/kg/injection, schedule: Q04DX003 (ip), vehicle: saline, higher = longer survival): 108 % of control | T/C (endpoint: median survival time, dose: 800.0 mg/kg/injection, schedule: Q04DX003 (ip), vehicle: saline, higher = longer survival): 119 % of control

CCN1C=C/C(=C/c2cc3scc(-c4ccccc4)[n+]3c3ccccc23)c2ccccc21
T/C (endpoint: median survival time, dose: 0.15 mg/kg/injection, schedule: Q01DX009 (ip), vehicle: Klucel (hydroxypropylcellulose) (HPC), higher = longer survival): 107 % of control

COC1C(C)OC(OC2CC(C)(O)Cc3cc4c(c(O)c32)C(=O)c2c(O)cc3c(c2C4=O)OC2OC3(C)C(O)C(N(C)C)C2O)C(OC)C1(C)OC (stereo not given)
T/C (endpoint: median survival time, dose: 2.5 mg/kg/injection, schedule: Q01DX009 (ip), vehicle: other, higher = longer survival): 90 % of control | T/C (endpoint: median survival time, dose: 625.0 micrograms/kg/injection, schedule: Q01DX009 (ip), vehicle: other, higher = longer survival): 113 % of control | T/C (endpoint: median survival time, dose: 1250.0 micrograms/kg/injection, schedule: Q01DX009 (ip), vehicle: other, higher = longer survival): 95 % of control | T/C (endpoint: median survival time, dose: 2500.0 micrograms/kg/injection, schedule: Q01DX009 (ip), vehicle: other, higher = longer survival): 122 % of control | T/C (endpoint: median survival time, dose: 5000.0 micrograms/kg/injection, schedule: Q01DX009 (ip), vehicle: other, higher = longer survival): 113 % of control

O=c1cnn(C2OC(CO)C(O)C2O)c(=O)[nH]1 (stereo not given)
T/C (endpoint: median survival time, dose: 75.0 mg/kg/injection, schedule: Q01DX009 (ip), vehicle: saline, higher = longer survival): 117 % of control | T/C (endpoint: median survival time, dose: 150.0 mg/kg/injection, schedule: Q01DX009 (ip), vehicle: saline, higher = longer survival): 104 % of control | T/C (endpoint: median survival time, dose: 300.0 mg/kg/injection, schedule: Q01DX009 (ip), vehicle: saline, higher = longer survival): 90 % of control | T/C (endpoint: median survival time, dose: 600.0 mg/kg/injection, schedule: Q01DX009 (ip), vehicle: saline, higher = longer survival): 101 % of control
